B1: NT-3: NGF related neurotrophic factor neurotrophin-3; HPLC-purified from Genentech or as COS cell supernatant (protein, UniProt P20783 139-257, looked up)
Neurotrophin-3: YAEHKSHRGEYSVCDSESLWVTDKSSAIDIRGHQVTVLGEIKTGNSPVKQYFYETRCKEARPVKNGCRGIDDKHWNSQCKTSQTYVRALTSENNKLVGWRWIRIDTSCVCALSRKIGRT

Key:
[1] = tested on: gp145^trkB; assay: gp145^trkB tyrosine phosphorylation in trkB-expressing NIH 3T3 cells (pJM8 lines), immunoprecipitation and α-Ptyr Western; type: cell-based, rat; settings: for tyrosine phosphorylation of gp145^trkB: pJM8 trkB-expressing NIH 3T3 cells, 100 ng/ml factor, 5 min; for time to detection of trkB tyrosine phosphorylation / time to maximal levels of trkB tyrosine phosphorylation / concentration giving maximal gp145^trkB phosphorylation: pJM8-3 cells; for time to detection of trkB tyrosine phosphorylation / time to maximal levels of trkB tyrosine phosphorylation: 100 ng/ml; for concentration giving maximal gp145^trkB phosphorylation: dose response 0.1 to 250 ng/ml
Method: A 4.8 kb cDNA encompassing the coding domain of rat trkB (Middlemas et al., (1991)) was cloned into the pMEX plasmid (pJM8) downstream of the MSV promoter. NIH 3T3 cells were cotransfected with the pJM8 plasmid and a plasmid containing the neomycin phosphotransferase gene (L. F. Parada et al., Nature 312:649-651 (1984)), and G418-resistant colonies were selected. PC12 cells (Greene and Tischler, 1976) were grown in DMEM with 10% horse serum and 5% fetal calf serum. NIH 3T3 cells and the derivative cells lines were maintained in DMEM medium containing 10% calf serum. All cells were maintained in a humidified incubator at 37° C. in 5% CO2.
Approximately 10^7 cells were treated at 37° C. for 5 min with 100 ng/ml growth factors or at the concentrations and lengths of time noted in the text. NP-40 plate lysis and gp145^trkB immunoprecipitation with anti-serum 443 were performed as previously described (Kaplan et al., (1990), (1991)). The phosphotyrosine content was analyzed by Western transfer using monoclonal antibody 4G10 as previously described (Morrison et al., (1989)).
The product of the trk proto-oncogene (gp140^proto-trk) is tyrosine phosphorylated in response to NGF in PC12 cells, NGF-responsive neuroblastoma cells, heterologous fibroblasts and Xenopus oocytes (Kaplan et al., (1991); A. R. Nebreda et al., Science 252:558-560 (1991); Klein et al., (1991)). Next it was examined whether NGF elicited tyrosine phosphorylation of gp145^trkB in trkB-expressing NIH 3T3 cells. Cell line pJM8-3 was treated with high concentrations of NGF (100 ng/ml) for 5 minutes. The cells were lysed, immunoprecipitated with anti-trkB antiserum 443, transferred to nitrocellulose filters and probed with anti-phosphotyrosine (α-Ptyr) antibodies. As a negative control, untransfected NIH-3T3 cells were treated in parallel, while PC12 cells were used as a positive control for NGF responsiveness (Kaplan et al., (1991)).
BDNF and NT-3 are neurotrophic factors that display many functional and structural features that are reminiscent of NGF. The genes encoding BDNF and NT-3 have recently been cloned and used to express high levels of the biologically active factors in pure form (A. Rosenthal et al., Neuron 4:773 (1990)). It was tested whether these NGF-related neurotrophic factors would stimulate phosphorylation of the trkB glycoprotein by exposing the pJM-8 cell lines to 100 ng/ml of NGF, BDNF, or NT-3 (~4 nM) for 5 minutes. The cells were then lysed and the lysates incubated with a trkB anti-peptide antiserum (443) with or without excess peptide. After transfer to nitrocellulose filters, the trkB proteins were probed with an anti-phosphotyrosine (α-ptyr) monoclonal antibody (FIG. 10) (Kaplan et al. (1991)). […] Thus, both neurotrophic factors NT-3 and BDNF can elicit tyrosine phosphorylation of gp145^trkB in a manner similar to that observed for NGF stimulation of the trk receptor. Similar results have been obtained with NT-3 and BDNF in Rat2 cells expressing trkB.
Having detected gp145^trkB phosphorylation in response to BDNF and NT-3, it was next determined whether unrelated polypeptide growth factors were capable of eliciting a similar response. Platelet-derived growth factor (PDGF; 100 ng/ml), epidermal growth factor (EGF; 100 ng/ml), insulin (100 ng/ml), and basic fibroblast growth factor (bFGF; 100 ng/ml), were added independently to exponentially growing cultures of pJM8-3 cells.
The previous studies were done in the presence of high concentrations of neurotrophic factors. Dose response experiments were next performed to determine the range of concentrations at which phosphorylation of the trkB receptor was stimulated by NT-3 or BDNF. Cells were incubated with quantities of NT-3 or BDNF ranging from 0.1 ng/ml to 250 ng/ml and treated as described in FIG. 12. […]

[2] = biological target: T1, gp140^prototrk (Rattus norvegicus, UniProt P35739); assay: trk tyrosine phosphorylation in PC12 cells treated with NGF (32P labelling / Ptyr immunoblot of trk immunoprecipitates); type: cell-based; settings: 15 min at 37° C., 100 ng/ml FGF or EGF, 100 nM insulin, 1 μg/ml PMA
T1 construct: tyrosine phosphorylation in response to NGF addition to PC12 cells; endogenous in cells; host or cells: PC12 cells
T1 sequence (P35739 33-799): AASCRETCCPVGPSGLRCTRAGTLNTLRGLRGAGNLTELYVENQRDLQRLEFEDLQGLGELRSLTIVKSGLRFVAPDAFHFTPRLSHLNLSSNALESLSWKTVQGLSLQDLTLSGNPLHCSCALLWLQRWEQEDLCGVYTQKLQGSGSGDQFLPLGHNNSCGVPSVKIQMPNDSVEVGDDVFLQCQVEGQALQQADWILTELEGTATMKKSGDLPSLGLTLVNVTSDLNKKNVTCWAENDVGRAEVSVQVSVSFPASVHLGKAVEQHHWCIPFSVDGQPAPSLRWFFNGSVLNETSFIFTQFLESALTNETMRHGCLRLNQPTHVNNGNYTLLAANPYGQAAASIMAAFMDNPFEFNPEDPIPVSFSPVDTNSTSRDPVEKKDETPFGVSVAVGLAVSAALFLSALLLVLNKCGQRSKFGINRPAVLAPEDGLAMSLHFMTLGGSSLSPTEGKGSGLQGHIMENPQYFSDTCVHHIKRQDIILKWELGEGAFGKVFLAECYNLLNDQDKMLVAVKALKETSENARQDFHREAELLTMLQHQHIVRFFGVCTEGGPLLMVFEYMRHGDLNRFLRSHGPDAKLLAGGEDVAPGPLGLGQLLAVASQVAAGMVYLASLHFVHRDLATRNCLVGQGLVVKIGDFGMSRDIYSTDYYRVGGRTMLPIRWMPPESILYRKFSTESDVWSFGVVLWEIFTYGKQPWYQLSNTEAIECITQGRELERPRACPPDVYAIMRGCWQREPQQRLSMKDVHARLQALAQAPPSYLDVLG
Method: FIGS. 1A-C show the tyrosine phosphorylation of gp140trk in PC12 cells and trk-expressing NIH-3T3 cells treated with NGF. FIG. 1A, gp140trk immunoprecipitated from PC12 cells or trk-expressing 3T3 cells labeled with ^32 P-orthophosphate. Immunoprecipitates were prepared with rabbit anti-trk antisera 43-4 (D. Martin-Zanca et al., Mol Cell. Biol. 9:24-33 (1989)) from lysates prepared from 3T3 cells expressing the rat trk gene (trk 3T3) (lane 1) or PC12 cells treated for 5 min with 100 ng/ml NGF at 37° C. (lanes 2 and 4) or mock treated (lane 3). The immunoprecipitate shown in lane 2 was prepared in the presence of the peptide used to generate the rabbit 43-4 trk antibody (Martin-Zanca et al., (1989)). Shown in FIG. 1B is the phosphoamino acid analysis of trk proteins phosphorylated in vitro in p140trk immunoprecipitates from NGF treated PC12 cells in vivo from NGF treated (+) or untreated (-) PC12 cells, or in vivo from trk 3T3 cells. The positions of phosphoserine (S), phosphothreonine (T), and phosphotyrosine (Y) are indicated. FIG. 1C, trk proteins from trk 3T3 cells phosphorylated […]. In lanes 1-3, gp140trk immunoprecipitates were probed with P-tyr antibodies. In lanes 4-6, gp140trk proteins were phosphorylated in vitro in kinase assays. Cells were treated with suramin (lanes 2 and 5) or with 500 ng/ml NGF for 10 min following suramin treatment. The band migrating at 110 kDa is a glycosylation precursor of gp140^prototrk (Martin-Zanca et al., (1989)). The band at the bottom of the figure is IgG. Molecular weight markers in kDa are indicated.
rtrk 3T3 cells were generated by CaPO4 mediated transfection of a rat trk cDNA into NIH-3T3 cells. Rat trk cDNAs were obtained from an embryonic rat DRG cDNA library. The longest trk cDNA obtained (2.4 kbp) was missing approximately 150 bp of the coding region as compared to available mouse and human trk sequence. The missing bases plus minimal (~50 bp) 5' flanking non-coding sequences were replaced from mouse first coding exon sequences and the reconstructed gene was placed downstream of an MSV-LTR. PC12 cells or rtrk 3T3 cells (2×10^7) were labeled with ^32 P orthophosphate (1 mCi.ml in 4 ml) for 4 hr at 37° C. Cells were treated with NGF for the indicated times, washed, lysed in buffer containing 1% NP40, and the lysates immunoprecipitated with trk antibody 43-4 (D. R. Kaplan et al., Cell 61:125-133 (1990)) and electrophoresed on 7.5% SDS-PAGE gels as previously described (Kaplan et al., (1990)). For b, the phosphorylated trk bands were eluted from the gel and phosphoamino acid analysis performed as described (B. M. Sefton et al., J. Cell 24:165-174 (1981)). gp140trk protein from NGF treated PC12 cells was phosphorylated in vitro. For c, rtrk 3T3 cells were treated with 1 mM suramin in Dulbecco's Modified Eagle Medium (DMEM) for 2 h or mock treated. Following extensive washing of the cells with DMEM, NGF was added for the time indicated. Cells were lysed and the lysates were immunoprecipitated with trk antibody. Immunoprecipitates were either subjected to immunoblot analysis with the phosphotyrosine (Ptyr) monoclonal antibody 4G10 (Lanes 1-3), or were analyzed in kinase assays. (D. K. Morrison, et al. Cell 58:649-657 (1989) and Kaplan et al., (1990)). Similar amounts of trk protein were present in each lane.
FIGS. 2A-C. Time course, growth factor specificity, and dose response of trk tyrosine phosphorylation in PC12 cells. A, Time course of trk tyrosine phosphorylation. Cells (2×10^7) were treated with 50 ng/ml NGF at 37° C. B, Effects of growth and differentiation factors on trk tyrosine phosphorylation. Cells were treated with 100 ng/ml NGF, 100 ng/ml basic fibroblast growth factor (FGF) (Boehringer Mannheim Biochemicals), 100 ng/ml epidermal growth factor (EGF) (Upstate Biotechnology, Inc.), 100 nM insulin (Sigma), or 1 μg/ml phorbal 12-myristate […] (PMA) (Sigma) for 15 min. at 37° C. C, dose response of trk tyrosine phosphorylation. […]

[3] = biological target: p140^prototrk (Rattus norvegicus, UniProt P35739); assay: trk tyrosine phosphorylation in rtrk-3T3 cells, suramin treatment followed by NGF (in vivo and immune complex kinase assays); type: cell-based; settings: rtrk-3T3 cells, 1 mM suramin for 2 h
Chain of p140^prototrk (P35739 33-799): as above
Method: rtrk 3T3 cells were generated by CaPO4 mediated transfection of a rat trk cDNA into NIH-3T3 cells. […] PC12 cells or rtrk 3T3 cells (2×10^7) were labeled with ^32 P orthophosphate (1 mCi.ml in 4 ml) for 4 hr at 37° C. […] For c, rtrk 3T3 cells were treated with 1 mM suramin in Dulbecco's Modified Eagle Medium (DMEM) for 2 h or mock treated. Following extensive washing of the cells with DMEM, NGF was added for the time indicated. Cells were lysed and the lysates were immunoprecipitated with trk antibody. Immunoprecipitates were either subjected to immunoblot analysis with the phosphotyrosine (Ptyr) monoclonal antibody 4G10 (Lanes 1-3), or were analyzed in kinase assays. […] Similar amounts of trk protein were present in each lane.

[4] = tested on: trkB; assay: Growth factor stimulation of trkB transfected 3T3 cells (pJM8-3), COS cell supernatants, Ptyr blot; type: cell-based; settings: trkB-expressing 3T3 cells (pJM8-3), 100 μl/ml NT-3 COS cell supernatant, 10 minutes at 37° C.
Method: To study the expression of trkB in transfected cell lines, full length trkB cDNAs were cloned into CMV and MuLV LTR expression vectors and transfected into NIH-3T3 fibroblasts, PC 12 pheochromocytoma cells and NR18 cells (a derivative of PC12 cells). Stable G418 resident clones were picked and expanded. Assays to detect cell lines expressing trkB were performed by detergent lysis of the cells, followed by WGA-sepharose adsorption. The adsorbed material was analyzed by SDS-PAGE on 7.5% gels, transferred to nitrocellulose and probed with antisera 442, a trkB specific rabbit antisera. The Western blots contained a WGA-sepharose extract of mouse brain as a control and BIORAD prestained molecular weight standards (200, 116, 80 and 43 kDa).
To study growth factor stimulation in cells transfected with trkB, NIH 3T3 trk transfected 3T3 (pJM7-23), trkB transfected 3T3 cells (pJM8-3) and non-transfected 3T3 cells (control cells) were exposed to media or media containing 100 μl/ml of NGF-COS cell supernatant, 100 μl/ml NT-3 COS cell supernatant, 5 μl/ml human platelet extract, or 50 μl/ml human platelet extract, for 10 minutes at 37° C. The plates were rinsed, lysed, and the trk or trkB was immunoprecipitated with rabbit antisera 443 and protein A Sepharose in the presence or absence of 10 μg/ml blocking peptide. […]

Row | Molecule | tyrosine phosphorylation of gp145^trkB [1] | induction of trk tyrosine phosphorylation by growth and differentiation factors [2] | also measured
1 | insulin: insulin (Sigma) [reference compound] | No tyrosine-phosphorylated gp145^trkB was detected | failed to induce | –
2 | CCCCCCCCCCCCCC(=O)O[C@@H]1[C@@H](C)[C@@]2(O)[C@@H](C=C(CO)C[C@]3(O)C(=O)C(C)=C[C@@H]23)[C@@H]2C(C)(C)[C@]12OC(C)=O [PMA, phorbal 12-myristate 12-acetate, reference compound] | – | failed to induce | –
3 | EGF: epidermal growth factor (Upstate Biotechnology, Inc.) [reference compound] | No tyrosine-phosphorylated gp145^trkB was detected | failed to induce | –
4 | PDGF [reference compound] | No tyrosine-phosphorylated gp145^trkB was detected | – | –
5 | BDNF: NGF related neurotrophic factor, brain-derived neurotrophic factor | strong phosphorylation | – | time to detection of trkB tyrosine phosphorylation [1]: one; time to maximal levels of trkB tyrosine phosphorylation [1]: ≤ 5 min; concentration giving maximal gp145^trkB phosphorylation [1]: 50 ng/mL
6 | Cc1ccc(C(=O)Nc2ccc(S(=O)(=O)O)c3cc(S(=O)(=O)O)cc(S(=O)(=O)O)c23)cc1NC(=O)c1cccc(NC(=O)Nc2cccc(C(=O)Nc3cc(C(=O)Nc4ccc(S(=O)(=O)O)c5cc(S(=O)(=O)O)cc(S(=O)(=O)O)c45)ccc3C)c2)c1 [suramin, reference compound] | – | – | tyrosine phosphorylation of p140^prototrk in vivo and in immune complex kinase assays [3]: markedly reduced
7 | basic FGF: basic fibroblast growth factor (Boehringer Mannheim Biochemicals) [reference compound] | No tyrosine-phosphorylated gp145^trkB was detected | failed to induce | –
8 | B1 | strong phosphorylation | – | time to detection of trkB tyrosine phosphorylation [1]: one; time to maximal levels of trkB tyrosine phosphorylation [1]: ≤ 5 min; concentration giving maximal gp145^trkB phosphorylation [1]: 50 ng/mL; stimulation of trkB tyrosine phosphorylation [4]: stimulated

Reference: patent US6071709A, “Nerve growth factor/receptor complex” (The United States of America as represented by the …, priority 1992, dated 2000)
